Assay results published in patent US7074789B2, “Kinase inhibitors” (Amgen Inc., priority 1999, dated 2006).

Assays:
Type in all cases: biochemical
[1] = biological target: T1, FGFR1 (Homo sapiens, UniProt P11362); test: Kinase inhibition assay (33P transfer), FGFR1; conditions: read-out: FGFR1-1
T1 construct: Kinases are expressed as either kinase domains or full length constructs; made in house

[2] = biological target: T2, Lck (Homo sapiens, UniProt P06239); test: Kinase inhibition assay (33P transfer), Lck; conditions: read-out: Lck-1
T2 construct: Kinases are expressed as either kinase domains or full length constructs; made in house
T2 sequence (P06239 whole entry, species assumed, the tested form may be a part): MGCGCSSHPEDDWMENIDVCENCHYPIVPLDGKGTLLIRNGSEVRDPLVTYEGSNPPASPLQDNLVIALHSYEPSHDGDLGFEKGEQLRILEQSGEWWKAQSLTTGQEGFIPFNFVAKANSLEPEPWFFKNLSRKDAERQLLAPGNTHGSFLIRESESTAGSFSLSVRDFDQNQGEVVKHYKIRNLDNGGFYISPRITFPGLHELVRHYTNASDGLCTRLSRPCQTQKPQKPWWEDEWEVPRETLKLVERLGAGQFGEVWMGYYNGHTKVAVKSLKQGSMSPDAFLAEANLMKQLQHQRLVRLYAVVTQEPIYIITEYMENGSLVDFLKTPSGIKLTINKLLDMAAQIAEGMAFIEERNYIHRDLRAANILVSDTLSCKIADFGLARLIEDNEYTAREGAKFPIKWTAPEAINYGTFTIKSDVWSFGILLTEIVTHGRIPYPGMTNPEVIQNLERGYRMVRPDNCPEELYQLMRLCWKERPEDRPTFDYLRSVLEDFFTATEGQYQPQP
Procedure, shortened: (§1)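 Activity was read as 33P incorporation, counted by liquid scintillation after a 0.5% phosphoric acid wash, into poly(Glu,Tyr) 4:1 or poly(Arg,Ser) 3:1 substrates coated on plates. Enzymes were tagged (GST or polyHis) kinase domains or full-length proteins from bacterial or insect-cell expression, sometimes with regulatory polypeptides.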

[3] = biological target: T3, IGFR-1 (Homo sapiens, UniProt P08069); test: Kinase inhibition assay, IGFR-1 (Table 2); conditions: Table 2, kinase inhibition class
T3 construct: Kinases are expressed as either kinase domains or full length constructs; made in house

[4] = biological target: T4, AKT (Homo sapiens, UniProt Q9Y243); test: Kinase inhibition assay (33P transfer), AKT; conditions: Table 2, kinase inhibition class; read-out: AKT3-1
T4 construct: Kinases are expressed as either kinase domains or full length constructs; made in house
Procedure, shortened: as §1

[5] = biological target: T5, Fyn (Homo sapiens, UniProt P06241); test: Kinase inhibition assay (33P transfer), Fyn; conditions: read-out: Fyn-1
T5 construct: Kinases are expressed as either kinase domains or full length constructs; made in house
Procedure, shortened: (§2)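 Read-out: scintillation counts of 33P moved from ATP onto synthetic peptide polymer coated on the well surface, after washing with 0.5% phosphoric acid. Enzymes were tagged (GST or polyHistidine) and came from bacterial or insect-cell expression. IC50 marks 50% loss of incorporated label.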

[6] = biological target: T6, EGFR (Homo sapiens, UniProt P00533); test: Kinase inhibition assay (33P transfer), EGFR; conditions: Table 2, kinase inhibition class; read-out: EGFR-1
T6 construct: Kinases are expressed as either kinase domains or full length constructs; made in house
Procedure, shortened: as §2

[7] = biological target: T7, PDGFRB (Homo sapiens, UniProt P09619); test: Kinase inhibition assay (33P transfer), PDGFRB; conditions: read-out: PDGFRB-1
T7 construct: Kinases are expressed as either kinase domains or full length constructs; made in house

[8] = biological target: T8, Src (Homo sapiens, UniProt P12931); test: Kinase inhibition assay (33P transfer), Src; conditions: Table 6, Src-1 kinase inhibition class
T8 construct: Kinases are expressed as either kinase domains or full length constructs; made in house
T8 sequence (P12931 whole entry, species assumed, the tested form may be a part): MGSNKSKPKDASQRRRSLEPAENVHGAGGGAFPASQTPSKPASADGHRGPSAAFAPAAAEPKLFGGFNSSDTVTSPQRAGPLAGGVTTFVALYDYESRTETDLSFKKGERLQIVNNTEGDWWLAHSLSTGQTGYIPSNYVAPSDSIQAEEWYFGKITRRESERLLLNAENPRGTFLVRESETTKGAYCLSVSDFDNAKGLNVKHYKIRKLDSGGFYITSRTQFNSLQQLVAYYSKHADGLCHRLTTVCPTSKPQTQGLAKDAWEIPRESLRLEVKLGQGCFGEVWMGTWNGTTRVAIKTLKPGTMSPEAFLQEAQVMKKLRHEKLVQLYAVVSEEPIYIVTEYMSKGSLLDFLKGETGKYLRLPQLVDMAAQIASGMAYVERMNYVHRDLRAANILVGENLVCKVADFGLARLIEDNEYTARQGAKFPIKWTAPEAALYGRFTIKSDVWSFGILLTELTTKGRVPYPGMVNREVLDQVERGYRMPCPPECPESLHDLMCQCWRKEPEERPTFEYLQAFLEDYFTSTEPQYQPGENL
Procedure, shortened: as §2

[9] = biological target: T9, Ret-1 (Homo sapiens, UniProt P07949); test: Kinase inhibition assay (33P transfer), Ret; conditions: Table 6, Ret-1 kinase inhibition class
T9 construct: Kinases are expressed as either kinase domains or full length constructs; made in house

[10] = biological target: T10, Flt-1 (Homo sapiens, UniProt P17948); test: Kinase inhibition assay (33P transfer), Flt-1
T10 construct: Kinases are expressed as either kinase domains or full length constructs; made in house
Procedure, shortened: as §2

[11] = biological target: T11, Hck-1 (Homo sapiens, UniProt P08631); test: Kinase inhibition assay (33P transfer), Hck; conditions: Table 6, Hck-1 kinase inhibition class
T11 construct: Kinases are expressed as either kinase domains or full length constructs; made in house
T11 sequence (P08631 whole entry, the tested form may be a part): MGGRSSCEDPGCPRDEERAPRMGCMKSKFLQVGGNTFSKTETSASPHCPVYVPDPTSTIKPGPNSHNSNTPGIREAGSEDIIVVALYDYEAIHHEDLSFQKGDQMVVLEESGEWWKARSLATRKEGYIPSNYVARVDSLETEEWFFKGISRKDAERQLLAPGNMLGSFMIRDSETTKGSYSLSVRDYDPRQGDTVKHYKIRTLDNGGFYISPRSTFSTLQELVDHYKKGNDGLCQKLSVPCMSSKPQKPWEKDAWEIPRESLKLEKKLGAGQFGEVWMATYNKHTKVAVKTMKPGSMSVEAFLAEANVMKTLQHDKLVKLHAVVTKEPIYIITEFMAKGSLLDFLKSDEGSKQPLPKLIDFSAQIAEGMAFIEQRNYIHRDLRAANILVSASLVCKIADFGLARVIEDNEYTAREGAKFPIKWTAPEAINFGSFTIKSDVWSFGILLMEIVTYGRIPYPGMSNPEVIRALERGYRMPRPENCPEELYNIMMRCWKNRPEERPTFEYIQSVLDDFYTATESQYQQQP

[12] = biological target: T12, Zap-70 (Homo sapiens, UniProt P43403); test: Kinase inhibition assay (33P transfer), Zap-70; conditions: read-out: Zap-1
T12 construct: Kinases are expressed as either kinase domains or full length constructs; made in house
T12 sequence (P43403 1-619): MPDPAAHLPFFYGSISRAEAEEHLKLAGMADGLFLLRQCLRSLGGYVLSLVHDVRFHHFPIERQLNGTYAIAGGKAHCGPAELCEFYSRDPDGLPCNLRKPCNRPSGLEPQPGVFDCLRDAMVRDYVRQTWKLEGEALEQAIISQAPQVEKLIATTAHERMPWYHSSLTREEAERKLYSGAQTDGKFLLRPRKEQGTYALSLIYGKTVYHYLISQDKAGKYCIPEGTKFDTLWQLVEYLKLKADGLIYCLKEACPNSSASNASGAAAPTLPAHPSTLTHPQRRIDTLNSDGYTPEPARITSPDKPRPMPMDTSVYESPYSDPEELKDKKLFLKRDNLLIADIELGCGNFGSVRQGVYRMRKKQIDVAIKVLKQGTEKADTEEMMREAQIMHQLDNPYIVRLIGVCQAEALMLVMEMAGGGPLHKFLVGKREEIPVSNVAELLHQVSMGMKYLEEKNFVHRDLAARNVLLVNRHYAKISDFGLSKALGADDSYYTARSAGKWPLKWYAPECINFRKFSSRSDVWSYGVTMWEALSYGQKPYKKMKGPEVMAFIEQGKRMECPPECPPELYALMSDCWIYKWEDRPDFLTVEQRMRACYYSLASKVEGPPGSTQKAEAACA
Procedure, shortened: as §1

[13] = biological target: T13, Kdr (Homo sapiens, UniProt P35968); test: Kinase inhibition assay (33P transfer), Kdr; conditions: read-out: KDR-1
T13 construct: Kinases are expressed as either kinase domains or full length constructs; made in house
Procedure, shortened: as §1

[14] = biological target: T14, ErbB4 (Homo sapiens, UniProt Q15303); test: Kinase inhibition assay (33P transfer), ErbB4; conditions: read-out: ErbB4-1
T14 construct: Kinases are expressed as either kinase domains or full length constructs; made in house
T14 sequence (Q15303 26-1308, species assumed): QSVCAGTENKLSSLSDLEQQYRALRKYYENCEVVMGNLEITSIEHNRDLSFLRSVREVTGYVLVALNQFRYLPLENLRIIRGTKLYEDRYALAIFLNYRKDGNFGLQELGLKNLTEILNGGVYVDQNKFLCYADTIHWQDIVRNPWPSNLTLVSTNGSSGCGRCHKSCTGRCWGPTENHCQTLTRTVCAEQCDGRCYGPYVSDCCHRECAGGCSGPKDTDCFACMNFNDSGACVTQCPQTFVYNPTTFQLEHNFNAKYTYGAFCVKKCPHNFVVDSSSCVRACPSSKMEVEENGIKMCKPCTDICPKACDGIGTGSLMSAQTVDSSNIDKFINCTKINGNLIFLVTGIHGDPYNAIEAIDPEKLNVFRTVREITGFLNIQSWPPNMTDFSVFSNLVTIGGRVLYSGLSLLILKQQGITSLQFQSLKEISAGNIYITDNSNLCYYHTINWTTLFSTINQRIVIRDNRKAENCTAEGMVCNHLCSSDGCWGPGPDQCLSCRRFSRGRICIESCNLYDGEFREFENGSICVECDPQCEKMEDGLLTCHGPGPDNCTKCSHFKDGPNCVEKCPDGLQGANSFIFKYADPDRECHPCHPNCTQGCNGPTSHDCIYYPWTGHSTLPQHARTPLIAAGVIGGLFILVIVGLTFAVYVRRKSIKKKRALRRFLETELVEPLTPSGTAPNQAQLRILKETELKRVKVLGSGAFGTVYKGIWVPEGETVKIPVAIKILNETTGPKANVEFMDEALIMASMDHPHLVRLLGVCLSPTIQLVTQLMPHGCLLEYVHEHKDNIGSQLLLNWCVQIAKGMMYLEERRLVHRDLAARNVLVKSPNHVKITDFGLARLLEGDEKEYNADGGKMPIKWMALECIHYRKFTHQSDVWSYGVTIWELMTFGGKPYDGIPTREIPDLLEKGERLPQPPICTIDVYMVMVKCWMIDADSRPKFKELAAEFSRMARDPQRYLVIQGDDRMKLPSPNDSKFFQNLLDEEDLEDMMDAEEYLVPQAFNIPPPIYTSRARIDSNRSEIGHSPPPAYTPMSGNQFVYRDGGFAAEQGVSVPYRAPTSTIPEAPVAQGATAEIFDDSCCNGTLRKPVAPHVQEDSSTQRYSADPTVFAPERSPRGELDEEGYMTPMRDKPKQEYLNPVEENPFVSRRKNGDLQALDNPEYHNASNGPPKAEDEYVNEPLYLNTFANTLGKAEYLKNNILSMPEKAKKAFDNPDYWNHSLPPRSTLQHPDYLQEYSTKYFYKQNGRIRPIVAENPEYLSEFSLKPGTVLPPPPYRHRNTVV

[15] = biological target: T15, c-Met (Homo sapiens, UniProt P08581); test: Kinase inhibition assay (33P transfer), c-Met; conditions: Table 2, kinase inhibition class; read-out: Met-1
T15 construct: Kinases are expressed as either kinase domains or full length constructs; made in house
T15 sequence (P08581 25-1390): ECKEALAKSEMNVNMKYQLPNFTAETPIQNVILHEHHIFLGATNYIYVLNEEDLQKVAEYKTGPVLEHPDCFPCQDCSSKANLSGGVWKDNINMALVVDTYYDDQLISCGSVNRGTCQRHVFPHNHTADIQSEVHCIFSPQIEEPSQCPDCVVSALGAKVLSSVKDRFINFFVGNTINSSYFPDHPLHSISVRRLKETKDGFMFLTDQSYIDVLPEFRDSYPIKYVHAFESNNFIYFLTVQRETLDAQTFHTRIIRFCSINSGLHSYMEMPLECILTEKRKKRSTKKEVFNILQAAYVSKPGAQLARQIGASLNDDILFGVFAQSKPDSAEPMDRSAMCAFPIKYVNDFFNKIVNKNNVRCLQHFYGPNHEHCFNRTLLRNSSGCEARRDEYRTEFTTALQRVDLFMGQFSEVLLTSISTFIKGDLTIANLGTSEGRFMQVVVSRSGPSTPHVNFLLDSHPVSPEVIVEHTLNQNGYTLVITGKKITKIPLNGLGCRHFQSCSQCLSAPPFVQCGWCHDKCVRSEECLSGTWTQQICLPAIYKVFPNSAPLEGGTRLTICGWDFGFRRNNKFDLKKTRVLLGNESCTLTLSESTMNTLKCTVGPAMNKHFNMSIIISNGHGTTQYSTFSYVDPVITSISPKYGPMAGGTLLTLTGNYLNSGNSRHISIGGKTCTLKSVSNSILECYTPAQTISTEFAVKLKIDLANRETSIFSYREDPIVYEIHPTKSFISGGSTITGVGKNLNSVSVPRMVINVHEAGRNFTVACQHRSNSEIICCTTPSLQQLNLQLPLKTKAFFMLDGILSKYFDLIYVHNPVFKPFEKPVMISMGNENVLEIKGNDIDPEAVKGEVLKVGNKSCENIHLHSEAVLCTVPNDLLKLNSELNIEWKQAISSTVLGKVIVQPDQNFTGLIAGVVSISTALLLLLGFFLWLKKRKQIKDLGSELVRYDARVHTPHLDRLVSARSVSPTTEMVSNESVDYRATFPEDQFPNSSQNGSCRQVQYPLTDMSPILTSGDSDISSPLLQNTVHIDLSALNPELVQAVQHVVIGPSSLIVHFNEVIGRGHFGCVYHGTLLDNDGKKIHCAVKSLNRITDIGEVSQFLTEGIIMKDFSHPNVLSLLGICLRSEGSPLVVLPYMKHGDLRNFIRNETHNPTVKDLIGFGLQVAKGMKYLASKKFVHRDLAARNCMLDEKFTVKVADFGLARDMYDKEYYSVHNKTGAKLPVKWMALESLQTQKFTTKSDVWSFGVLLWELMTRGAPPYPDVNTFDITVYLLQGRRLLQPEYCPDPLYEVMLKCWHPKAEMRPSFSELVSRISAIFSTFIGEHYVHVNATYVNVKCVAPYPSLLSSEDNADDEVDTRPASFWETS
Procedure, shortened: as §2

[16] = biological target: T16, Tek (Homo sapiens, UniProt Q02763); test: Kinase inhibition assay (33P transfer), Tek; conditions: read-out: Tek-1
T16 construct: Kinases are expressed as either kinase domains or full length constructs; made in house
Procedure, shortened: as §2

[17] = biological target: T17, Lyn (Homo sapiens, UniProt P07948); test: Kinase inhibition assay (33P transfer), Lyn; conditions: Table 6, Lyn-1 kinase inhibition class
T17 construct: Kinases are expressed as either kinase domains or full length constructs; made in house
T17 sequence (P07948 whole entry, species assumed, the tested form may be a part): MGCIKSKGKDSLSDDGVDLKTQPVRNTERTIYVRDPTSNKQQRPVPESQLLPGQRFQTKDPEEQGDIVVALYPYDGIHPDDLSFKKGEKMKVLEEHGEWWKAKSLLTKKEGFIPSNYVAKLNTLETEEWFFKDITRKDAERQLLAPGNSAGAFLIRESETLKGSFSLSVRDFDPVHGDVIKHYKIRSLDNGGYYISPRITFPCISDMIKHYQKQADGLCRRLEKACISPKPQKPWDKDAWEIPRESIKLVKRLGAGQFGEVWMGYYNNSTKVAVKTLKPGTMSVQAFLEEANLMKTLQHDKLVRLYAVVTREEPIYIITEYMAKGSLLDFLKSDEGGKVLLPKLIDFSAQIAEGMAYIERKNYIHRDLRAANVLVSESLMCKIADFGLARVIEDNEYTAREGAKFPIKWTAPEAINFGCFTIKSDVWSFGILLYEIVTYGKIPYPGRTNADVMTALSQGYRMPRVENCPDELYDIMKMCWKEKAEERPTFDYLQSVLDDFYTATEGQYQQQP
Procedure, shortened: as §2

[18] = biological target: T18, Itk (Homo sapiens, UniProt Q08881); test: Kinase inhibition assay (33P transfer), Itk; conditions: read-out: Itk-1
T18 construct: Kinases are expressed as either kinase domains or full length constructs; made in house
T18 sequence (Q08881 1-620): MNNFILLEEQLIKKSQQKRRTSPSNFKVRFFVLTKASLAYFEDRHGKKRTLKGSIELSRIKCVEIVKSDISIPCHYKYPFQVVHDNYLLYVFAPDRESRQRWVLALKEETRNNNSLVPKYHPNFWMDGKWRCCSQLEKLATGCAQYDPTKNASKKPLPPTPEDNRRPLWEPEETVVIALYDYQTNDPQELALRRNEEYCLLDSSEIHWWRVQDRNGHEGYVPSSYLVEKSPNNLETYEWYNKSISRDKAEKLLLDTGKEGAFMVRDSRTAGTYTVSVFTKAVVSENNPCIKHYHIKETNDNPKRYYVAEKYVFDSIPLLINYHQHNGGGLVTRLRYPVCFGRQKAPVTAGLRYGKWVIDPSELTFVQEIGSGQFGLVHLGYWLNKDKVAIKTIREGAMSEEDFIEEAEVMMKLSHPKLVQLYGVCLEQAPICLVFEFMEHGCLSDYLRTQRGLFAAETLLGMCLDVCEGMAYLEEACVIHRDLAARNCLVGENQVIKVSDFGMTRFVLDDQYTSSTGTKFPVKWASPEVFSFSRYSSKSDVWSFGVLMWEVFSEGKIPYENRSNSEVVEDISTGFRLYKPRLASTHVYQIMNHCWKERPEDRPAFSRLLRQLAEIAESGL
Procedure, shortened: as §2

[19] = biological target: T19, ErbB2 (Homo sapiens, UniProt P04626); test: Kinase inhibition assay (33P transfer), ErbB2; conditions: read-out: ErbB2-2
T19 construct: Kinases are expressed as either kinase domains or full length constructs; made in house
Procedure, shortened: as §2

| Compound | IC50 [1] [µM] | IC50 [2] [µM] | IC50 [3] [µM] | IC50 [4] [µM] | IC50 [5] [µM] | IC50 [6] [µM] | IC50 [7] [µM] | IC50 [8] [µM] | IC50 [9] [µM] | IC50 [10] [µM] | IC50 [11] [µM] | IC50 [12] [µM] | IC50 [13] [µM] | IC50 [14] [µM] | IC50 [15] [µM] | IC50 [16] [µM] | IC50 [17] [µM] | IC50 [18] [µM] | IC50 [19] [µM] |
| --- | --- | --- | --- | --- | --- | --- | --- | --- | --- | --- | --- | --- | --- | --- | --- | --- | --- | --- | --- |
| COc1cc(Nc2ncnc(-n3c(=O)[nH]c4ccccc43)n2)cc(OC)c1OCCN1CCOCC1 [Compound 1040] | 0.81 to 4.86 | 0.81 to 4.86 | 7.09 to 9.12 | > 9.12 | 0.81 to 4.86 | 4.86 to 7.09 | < 0.81 | 0.81 to 4.86 | 4.86 to 7.09 | 0.81 to 4.86 | > 9.12 | > 9.12 | < 0.81 | 4.86 to 7.09 | > 9.12 | > 9.12 | > 9.12 | 0.81 to 4.86 | 4.86 to 7.09 |
| CCc1cccc(Nc2ncnc(-n3c(N)nc4ccccc43)n2)c1 [Compound 655] | 1.21 to 7.24 | 1.21 to 7.24 | < 1.21 | > 13.6 | > 13.6 | 1.21 to 7.24 | 1.21 to 7.24 | 7.24 to 10.6 | < 1.21 | < 1.21 | > 13.6 | > 13.6 | < 1.21 | 7.24 to 10.6 | 1.21 to 7.24 | 7.24 to 10.6 | 7.24 to 10.6 | 1.21 to 7.24 | 1.21 to 7.24 |

The remaining lines, values ahead:

| IC50 [1] [µM] | IC50 [2] [µM] | IC50 [3] [µM] | IC50 [4] [µM] | IC50 [5] [µM] | IC50 [6] [µM] | IC50 [7] [µM] | IC50 [8] [µM] | IC50 [9] [µM] | IC50 [10] [µM] | IC50 [11] [µM] | IC50 [12] [µM] | IC50 [13] [µM] | IC50 [14] [µM] | IC50 [15] [µM] | IC50 [16] [µM] | IC50 [17] [µM] | IC50 [18] [µM] | IC50 [19] [µM] | Compound |
| --- | --- | --- | --- | --- | --- | --- | --- | --- | --- | --- | --- | --- | --- | --- | --- | --- | --- | --- | --- |
| 0.995 to 5.97 | < 0.995 | 0.995 to 5.97 | > 11.2 | 0.995 to 5.97 | < 0.995 | < 0.995 | < 0.995 | < 0.995 | 0.995 to 5.97 | 5.97 to 8.71 | > 11.2 | < 0.995 | 0.995 to 5.97 | < 0.995 | 0.995 to 5.97 | 0.995 to 5.97 | > 11.2 | 0.995 to 5.97 | COc1cc(Nc2ncnc(N(C)c3ccc(Cl)cc3)n2)cc(OC)c1OC [Compound 616] |
| < 0.798 | > 8.97 | > 8.97 | > 8.97 | > 8.97 | > 8.97 | < 0.798 | > 8.97 | < 0.798 | < 0.798 | > 8.97 | > 8.97 | < 0.798 | > 8.97 | > 8.97 | > 8.97 | > 8.97 | > 8.97 | > 8.97 | COc1cc(Nc2ncnc(-n3c(NCc4ccc(F)cc4)nc4ccccc43)n2)cc(OC)c1OC [Compound 514] |
| < 0.804 | < 0.804 | > 9.04 | > 9.04 | > 9.04 | > 9.04 | < 0.804 | > 9.04 | < 0.804 | < 0.804 | > 9.04 | > 9.04 | < 0.804 | 0.804 to 4.82 | > 9.04 | 7.03 to 9.04 | 0.804 to 4.82 | > 9.04 | 7.03 to 9.04 | COc1cc(Nc2ncnc(-n3c(NCc4ccccc4C)nc4ccccc43)n2)cc(OC)c1OC [Compound 511] |
